Source: patent US20040266886A1, “Cosmetic and/or pharmaceutical superfatting preparations” (priority 2001, published 2004)
Like-named read-outs stand apart in the source and are kept apart here.

Tests used:
pig's epidermis [1] = assay: Dermatological compatibility: transepidermal water loss (TEWL), gravimetric; conditions: for TEWL [%-rel] = [treated/untreated * 100] − 100%: […] by weight fatty acid partial glyceride in 17% by weight Plantapon PS 10, pH 5.5, skin treated 30 minutes at 40° C., lower value = better compatibility
Procedure: (§1) Dermatological compatibility was evaluated by determining the transepidermal water loss (TEWL) in a pig's epidermis. To this end, defined pieces of skin were treated with the various test solutions for 30 minutes at 40° C. and the TEWL value was gravimetrically determined. The test solutions were mixtures of 17% by weight Plantapon® PS 10 (sodium lauryl ether sulfate and Lauryl Glycoside, Cognis Düsseldorf) with 1.5% by weight fatty acid partial glycerides (see Table 1) in preservative-containing water (WAS 10% by weight). The pH was adjusted to 5.5 with citric acid.

pig's epidermis [2] = conditions: pH 5.5
Procedure: as §1

Row | Molecule | TEWL [%-rel] = [treated/untreated * 100] − 100% (pig's epidermis [1]) [%-rel] | TEWL [%-rel] = [treated/untreated * 100] − 100% (pig's epidermis [2]) [%-rel] | also measured
1 | CCCCCCCCCCCC(=O)OCC(O)CO (centres unmarked) [Example 4, Lauric acid monoglyceride (>90)] | 10.5 | – | –
2 | Glycerol monocaprylate (>90) [Example 2] | – | – | Transepidermal water loss / dermatological compatibility (in words) (pig's epidermis [1]; compared with mixtures of 65% by weight monoglyceride and 35% by weight diglyceride): very good compatibility

Further lines, with some results ahead:

Row | TEWL [%-rel] = [treated/untreated * 100] − 100% (pig's epidermis [1]) [%-rel] | TEWL [%-rel] = [treated/untreated * 100] − 100% (pig's epidermis [2]) [%-rel] | Molecule | also measured
3 | – | 22.0 | Isostearic acid mono/diglyceride (65:35) [Example 7] | –
4 | 18.5 | – | Isostearic acid monoglyceride (>90) [Example 8] | –
5 | – | 20.5 | Lauric acid mono/diglyceride (65:35) [Example 3] | –
